Assay results: patent US20230158025A1 (UNIVERSITY OF UTAH RESEARCH FOUNDATION, priority 2020, published 2023)

How the values were obtained:
recombinant mouse GALK1 = recombinant mouse GALK1 (Mus musculus, UniProt Q9R0N0); assay: mGALK1 biochemical activity assay (Kinase-Glo Plus, ATP depletion); settings: recombinant mouse GALK1, Kinase-Glo Plus ATP depletion, bracketed figure in the cell, e.g. (−1.2), is not defined in the text shown; for IC50: read-out: mGALK
In short: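 Recombinant GALK1 (5 nM) with 100 μM galactose; GALK1 turnover read as ATP depletion by Kinase-Glo Plus luminescence. Reaction ran 1 h at room temperature before detection reagent was added.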

PAMPA permeability = settings: PAMPA
[1] = aqueous kinetic solubility; settings: aqueous kinetic solubility
[2] = rat microsomal stability (RLM); settings: microsomal stability half-life, minutes
recombinant human GALK1 = recombinant human GALK1 (Homo sapiens, UniProt P51570); assay: hGALK1 biochemical activity assay (Kinase-Glo Plus, ATP depletion); settings: recombinant human GALK1, Kinase-Glo Plus ATP depletion, bracketed figure in the cell, e.g. (−1.2), is not defined in the text shown; for IC50: read-out: hGALK
In short: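 Turnover is measured as ATP depletion by Kinase-Glo Plus luminescence after a 1 h room-temperature reaction. Compounds span 11 concentrations, 57.4 μM–0.97 nM, in final 20 mM HEPES pH 8.0 with 5 mM MgCl2. The substrate solution held 35 μM ATP; the added solution held 5 nM human or mouse GALK1 and 100 μM galactose.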

Chain of recombinant mouse GALK1 (Q9R0N0 whole entry): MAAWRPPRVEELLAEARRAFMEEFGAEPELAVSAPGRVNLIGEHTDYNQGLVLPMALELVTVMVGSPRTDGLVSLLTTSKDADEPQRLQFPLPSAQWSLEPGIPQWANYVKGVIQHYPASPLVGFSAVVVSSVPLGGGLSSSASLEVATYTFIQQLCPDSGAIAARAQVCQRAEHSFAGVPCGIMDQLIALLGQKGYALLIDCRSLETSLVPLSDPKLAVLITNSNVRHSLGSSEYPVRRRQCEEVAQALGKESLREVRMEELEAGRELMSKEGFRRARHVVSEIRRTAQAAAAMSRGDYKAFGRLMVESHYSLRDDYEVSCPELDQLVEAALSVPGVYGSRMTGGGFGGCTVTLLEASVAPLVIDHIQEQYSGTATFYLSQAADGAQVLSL
Chain of recombinant human GALK1 (P51570 whole entry): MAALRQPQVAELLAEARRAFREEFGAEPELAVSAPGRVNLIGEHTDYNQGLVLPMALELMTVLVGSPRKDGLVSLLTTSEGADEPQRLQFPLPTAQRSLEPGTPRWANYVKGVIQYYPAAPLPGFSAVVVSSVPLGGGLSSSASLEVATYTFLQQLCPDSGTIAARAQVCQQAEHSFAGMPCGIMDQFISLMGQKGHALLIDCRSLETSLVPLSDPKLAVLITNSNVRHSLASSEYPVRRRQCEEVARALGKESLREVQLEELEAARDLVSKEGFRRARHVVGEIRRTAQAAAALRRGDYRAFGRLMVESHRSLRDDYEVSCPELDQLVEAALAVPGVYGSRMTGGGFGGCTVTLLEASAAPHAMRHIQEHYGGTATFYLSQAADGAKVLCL

SMILES	IC50 (recombinant mouse GALK1)	Perm. (1 × 10^−6 cm/sec) (PAMPA permeability)	Sol. [1]	Metab. Stabil. (m) [2]	IC50 (recombinant human GALK1)	mGALK (μM) (recombinant mouse GALK1)	hGALK (μM) (recombinant human GALK1)
CC(C)CC1=C(C(=O)Nc2nncs2)C(c2ccccc2Cl)N=C(Nc2nc3ccccc3o2)N1 (centres unmarked) [Compound 248, 2-(benzo[d]oxazol-2-ylamino)-4-(2-chlorophenyl)-6-isobutyl-N-(1,3,4-thiadiazol-2-yl)-1,4-dihydropyrimidine-5-carboxamide]	17.2 µM	42.7 1 × 10^−6 cm/sec	<1 µg/mL	>30 m	5.44 µM		
O=C(Nc1nncs1)C1=C(c2cnccn2)NC(Nc2nc3ccccc3o2)=NC1c1ccccc1Cl (centres unmarked) [Compound 249, 2-(benzo[d]oxazol-2-ylamino)-4-(2-chlorophenyl)-6-(pyrazin-2-yl)-N-(1,3,4-thiadiazol-2-yl)-1,4-dihydropyrimidine-5-carboxamide]	21.7 µM	60.3 1 × 10^−6 cm/sec	2.1 µg/mL	>30 m	3.85 µM		
CC(C)C1=C(C(=O)Nc2nncs2)C(c2ccccc2Cl)N=C(Nc2nc3ccccc3o2)N1 (centres unmarked) [Compound 250, 2-(benzo[d]oxazol-2-ylamino)-4-(2-chlorophenyl)-6-isopropyl-N-(1,3,4-thiadiazol-2-yl)-1,4-dihydropyrimidine-5-carboxamide]	15.3 µM	24.6 1 × 10^−6 cm/sec	<1 µg/mL	>30 m	7.69 µM		
CC1=C(C(=O)Nc2nncs2)C(c2ccccc2Br)N=C(Nc2nc3ccccc3o2)N1 (centres unmarked) [Compound 251, 2-(benzo[d]oxazol-2-ylamino)-4-(2-bromophenyl)-6-methyl-N-(1,3,4-thiadiazol-2-yl)-1,4-dihydropyrimidine-5-carboxamide]	9.68 µM	446.9 1 × 10^−6 cm/sec	<1 µg/mL	>30 m	4.32 µM		
CC1=C(C(=O)Nc2nncs2)C2(CCCC2)N=C(Nc2nc3ccccc3o2)N1 [Compound 252, 7-(benzo[d]oxazol-2-ylamino)-9-methyl-N-(1,3,4-thiadiazol-2-yl)-6,8-diazaspiro[4.5]deca-6,9-diene-10-carboxamide]	19.3 µM	<1 1 × 10^−6 cm/sec	<1 µg/mL	>30 m	3.85 µM		
CC1=C(C(=O)Nc2nncs2)C(c2nn(C)cc2Cl)N=C(Nc2nc3ccccc3o2)N1 (centres unmarked) [Compound 253, 2-(benzo[d]oxazol-2-ylamino)-4-(4-chloro-1-methyl-1H-pyrazol-3-yl)-6-methyl-N-(1,3,4-thiadiazol-2-yl)-1,4-dihydropyrimidine-5-carboxamide]	17.2 µM	746.9 1 × 10^−6 cm/sec	12.8 µg/mL	>30 m	7.69 µM		
CC1=C(C(=O)Nc2nncs2)C(c2n[nH]cc2Cl)N=C(Nc2nc3ccccc3o2)N1 (centres unmarked) [Compound 254, 2-(benzo[d]oxazol-2-ylamino)-4-(4-chloro-1H-pyrazol-3-yl)-6-methyl-N-(1,3,4-thiadiazol-2-yl)-1,4-dihydropyrimidine-5-carboxamide]	54.4 µM	37.0 1 × 10^−6 cm/sec	34.6 µg/mL	>30 m	17.2 µM		
CC1=C(C(=O)Nc2nncs2)C(c2ccncc2Br)N=C(Nc2nc3ccccc3o2)N1 (centres unmarked) [Compound 255, 2-(benzo[d]oxazol-2-ylamino)-4-(3-bromopyridin-4-yl)-6-methyl-N-(1,3,4-thiadiazol-2-yl)-1,4-dihydropyrimidine-5-carboxamide]	19.3 µM	208.7 1 × 10^−6 cm/sec	6.5 µg/mL	>30 m	3.43 µM		
CC1=C(C(=O)Nc2nncs2)C(c2ncccc2Cl)N=C(Nc2nc3ccccc3o2)N1 (centres unmarked) [Compound 256, 2-(benzo[d]oxazol-2-ylamino)-4-(3-chloropyridin-2-yl)-6-methyl-N-(1,3,4-thiadiazol-2-yl)-1,4-dihydropyrimidine-5-carboxamide]	19.3 µM	695.3 1 × 10^−6 cm/sec	10.6 µg/mL	>30 m	6.85 µM		
CC1=C(C(=O)Nc2nncs2)C(c2ncccc2Br)N=C(Nc2nc3ccccc3o2)N1 (centres unmarked) [Compound 257, 2-(benzo[d]oxazol-2-ylamino)-4-(3-bromopyridin-2-yl)-6-methyl-N-(1,3,4-thiadiazol-2-yl)-1,4-dihydropyrimidine-5-carboxamide]	6.85 µM	709.3 1 × 10^−6 cm/sec	3.0 µg/mL	>30 m	4.85 µM		
CC1=C(C(=O)Nc2nncs2)C(c2c(Br)cnn2C)N=C(Nc2nc3ccccc3o2)N1 (centres unmarked) [Compound 258, 2-(benzo[d]oxazol-2-ylamino)-4-(4-bromo-1-methyl-1H-pyrazol-5-yl)-6-methyl-N-(1,3,4-thiadiazol-2-yl)-1,4-dihydropyrimidine-5-carboxamide]		198.3 1 × 10^−6 cm/sec	38.7 µg/mL	>30 m	21.7 µM	in- active	
CC1=C(C(=O)Nc2nncs2)C2(Cc3ccccc32)N=C(Nc2nc3ccccc3o2)N1 (centres unmarked) [Compound 259, 2′-(benzo[d]oxazol-2-ylamino)-6′-methyl-N-(1,3,4-thiadiazol-2-yl)-1′H-spiro[bicyclo[4.2.0]octane-7,4′-pyrimidine]-1,3,5-triene-5′-carboxamide]		190.9 1 × 10^−6 cm/sec	50.9 µg/mL	>30 m		in- active	in- active
CC1=C(C(=O)Nc2nncs2)C2(CCOC2)N=C(Nc2nc3ccccc3o2)N1 (centres unmarked) [Compound 260, 7-(benzo[d]oxazol-2-ylamino)-9-methyl-N-(1,3,4-thiadiazol-2-yl)-2-oxa-6,8-diazaspiro[4.5]deca-6,9-diene-10-carboxamide]		102.7 1 × 10^−6 cm/sec	37.9 µg/mL	>30 m	12.2 µM	in- active	
CC1=C(C(=O)Nc2nncs2)C(c2ccc(Cl)cc2Cl)N=C(Nc2nc3ccccc3o2)N1 (centres unmarked) [Compound 261, 2-(benzo[d]oxazol-2-ylamino)-4-(2,4-dichlorophenyl)-6-methyl-N-(1,3,4-thiadiazol-2-yl)-1,4-dihydropyrimidine-5-carboxamide]	6.11 µM	<4.9 1 × 10^−6 cm/sec	<1 µg/mL	>30 m	4.85 µM		
CC1=C(C(=O)Nc2nncs2)C(c2cccnc2Br)N=C(Nc2nc3ccccc3o2)N1 (centres unmarked) [Compound 262, 2-(benzo[d]oxazol-2-ylamino)-4-(2-bromopyridin-3-yl)-6-methyl-N-(1,3,4-thiadiazol-2-yl)-1,4-dihydropyrimidine-5-carboxamide]	19.3 µM	185.7 1 × 10^−6 cm/sec	11.1 µg/mL	>30 m	13.7 µM		
CC1=C(C(=O)Nc2nncs2)C(c2ccccc2C(F)(F)F)N=C(Nc2nc3ccccc3o2)N1 (centres unmarked) [Compound 263, 2-(benzo[d]oxazol-2-ylamino)-6-methyl-N-(1,3,4-thiadiazol-2-yl)-4-(2-(trifluoromethyl)phenyl)-1,4-dihydropyrimidine-5-carboxamide]	12.2 µM	29.8 1 × 10^−6 cm/sec	<1 µg/mL	>30 m	6.85 µM		
CC1=C(C(=O)Nc2nncs2)C(c2ccc(C)cc2Cl)N=C(Nc2nc3ccccc3o2)N1 (centres unmarked) [Compound 264, 2-(benzo[d]oxazol-2-ylamino)-4-(2-chloro-4-methylphenyl)-6-methyl-N-(1,3,4-thiadiazol-2-yl)-1,4-dihydropyrimidine-5-carboxamide]	6.11 µM	<14.4 1 × 10^−6 cm/sec	<1 µg/mL	>30 m	3.06 µM		
CC1=C(C(=O)Nc2nncs2)C(c2nn(C)cc2Br)N=C(Nc2nc3ccccc3o2)N1 (centres unmarked) [Compound 265, 2-(benzo[d]oxazol-2-ylamino)-4-(4-bromo-1-methyl-1H-pyrazol-3-yl)-6-methyl-N-(1,3,4-thiadiazol-2-yl)-1,4-dihydropyrimidine-5-carboxamide]	19.3 µM	1044.0 1 × 10^−6 cm/sec	6.4 µg/mL	>30 m	3.43 µM		
COc1ccc(C2N=C(Nc3nc4ccccc4o3)NC(C)=C2C(=O)Nc2nncs2)c(Cl)c1 (centres unmarked) [Compound 266, 2-(benzo[d]oxazol-2-ylamino)-4-(2-chloro-4-methoxyphenyl)-6-methyl-N-(1,3,4-thiadiazol-2-yl)-1,4-dihydropyrimidine-5-carboxamide]	5.44 µM	31.9 1 × 10^−6 cm/sec	<1 µg/mL	>30 m	3.85 µM		
